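Step 1: Grow cells in 96-well plates. Step 2: Expose to compound for 48 hours at 5 concentrations. Step 3: Interpolate endpoints linearly; if unreached, use highest concentration. GI50 = concentration required for 50% inhibition of growth.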 Calls of active or inactive are those of the source. Rule as the data show it: active = GI50 up to about 1.1 µM and inactive = higher.
Columns and labels:
Test in all cases: NCI-60 cell line screen, 48 h
[1] = test system: A498
[2] = test system: CAKI-1
[3] = test system: COLO 205
[4] = test system: HL-60
[5] = test system: HOP-62
[6] = test system: HOP-92
[7] = test system: MDA-MB-435
[8] = test system: NCI-H522
[9] = test system: OVCAR-3
[10] = test system: OVCAR-4
[11] = test system: OVCAR-5
[12] = test system: OVCAR-8
[13] = test system: SF-539
[14] = test system: SNB-19
[15] = test system: SR
[16] = test system: SW-620
[17] = test system: T47D
[18] = test system: U-251
[19] = test system: UACC-257
[20] = test system: UO-31

Row | SMILES | GI50 [1] | GI50 [2] | GI50 [3] | GI50 [4] | GI50 [5] | GI50 [6] | GI50 [7] | GI50 [8] | GI50 [9] | GI50 [10] | GI50 [11] | GI50 [12] | GI50 [13] | GI50 [14] | GI50 [15] | GI50 [16] | GI50 [17] | GI50 [18] | GI50 [19] | GI50 [20]
1 | COc1cc(C2c3cc4c(cc3OC3(OC)COC(=O)C23)OCO4)cc(OC)c1OC (stereo not given) | 0.281 µM (active) | 0.568 µM (active) | 0.251 µM (active) | 0.263 µM (active) | 0.48 µM (active) | 3.22 µM (inactive) | 0.0863 µM (active) | 0.18 µM (active) | 0.282 µM (active) | 4.85 µM (inactive) | 3.66 µM (inactive) | 0.332 µM (active) | 0.197 µM (active) | 1.64 µM (inactive) | 0.272 µM (active) | 0.286 µM (active) | > 100 µM (inactive) | 0.377 µM (active) | 2.66 µM (inactive) | 0.675 µM (active)
2 | COc1cc(C(=O)NNC(=O)c2cc(Br)ccc2NC(=O)c2cccs2)cc(OC)c1OC | 19.1 µM (inactive) | 29 µM (inactive) | 12.9 µM (inactive) | 14.8 µM (inactive) | 16.3 µM (inactive) | 15.3 µM (inactive) | 19.8 µM (inactive) | 20.7 µM (inactive) | 24.2 µM (inactive) | 12 µM (inactive) | 16.4 µM (inactive) | 19.1 µM (inactive) | 15.4 µM (inactive) | 23.1 µM (inactive) | 22.9 µM (inactive) | 28.1 µM (inactive) | 19.5 µM (inactive) | 17.1 µM (inactive) | 22.5 µM (inactive) | 14.4 µM (inactive)
3 | CCS(=O)(=O)c1c2cc(OC)ccc2nc2ccc(OC)cc12 | > 100 µM (inactive) | > 100 µM (inactive) | > 100 µM (inactive) | > 100 µM (inactive) | > 100 µM (inactive) | > 100 µM (inactive) | > 100 µM (inactive) | > 100 µM (inactive) | > 100 µM (inactive) | > 100 µM (inactive) | > 100 µM (inactive) | > 100 µM (inactive) | 26.5 µM (inactive) | > 100 µM (inactive) | > 100 µM (inactive) | > 100 µM (inactive) | > 100 µM (inactive) | > 100 µM (inactive) | > 100 µM (inactive) | > 100 µM (inactive)
4 | Cc1nc(O)nc2nc3ccc(Cl)cc3c(N(CCO)CCO)c12 | > 100 µM (inactive) | 96.2 µM (inactive) | > 100 µM (inactive) | > 100 µM (inactive) | > 100 µM (inactive) | > 100 µM (inactive) | > 100 µM (inactive) | 24 µM (inactive) | > 100 µM (inactive) | 18.4 µM (inactive) | > 100 µM (inactive) | > 100 µM (inactive) | > 100 µM (inactive) | > 100 µM (inactive) | > 100 µM (inactive) | > 100 µM (inactive) | > 100 µM (inactive) | > 100 µM (inactive) | > 100 µM (inactive) | 73.6 µM (inactive)
5 | CN(C)CCNc1ccc2c(=O)n(CCN(C)C)c(=O)n3c4ccc([N+](=O)[O-])cc4c(=O)c1c23 | 1.41 µM (inactive) | 0.498 µM (active) | 0.179 µM (active) | 0.157 µM (active) | 0.384 µM (active) | 0.201 µM (active) | 0.49 µM (active) | 0.08 µM (active) | 0.27 µM (active) | 0.301 µM (active) | 0.532 µM (active) | 0.248 µM (active) | 0.277 µM (active) | 0.452 µM (active) | 0.0815 µM (active) | 0.0524 µM (active) | 0.653 µM (active) | 0.34 µM (active) | 0.728 µM (active) | 0.262 µM (active)
6 | O=C1CC(NCc2ccccc2)c2c(Cl)sc(Cl)c21 (stereo not given) | > 60.3 µM (inactive) | 23.2 µM (inactive) | 21.6 µM (inactive) | 17.2 µM (inactive) | 29 µM (inactive) | 34.8 µM (inactive) | 24.7 µM (inactive) | 6.05 µM (inactive) | 20 µM (inactive) | 28.4 µM (inactive) | 39.8 µM (inactive) | 18 µM (inactive) | 27.2 µM (inactive) | 33.7 µM (inactive) | 3.2 µM (inactive) | 17.7 µM (inactive) | 73.1 µM (inactive) | 18.3 µM (inactive) | 19.6 µM (inactive) | 31.4 µM (inactive)

From ChEMBL document CHEMBL1201862, “PubChem BioAssay data set” (2004)
